For one data set, the system named is monoarthritic rats. The data set is described as follows: Paw pressure test (vocalization threshold) in monoarthritic rats (intraarticular FCA). Type of data set: in vivo, rat. Particulars: for antihyperalgesic effect in model of monoarthritis (overall): i.p. 0.1, 1 and 10 mg/kg. As to the method: Experimentation was done blindly using the block method with randomization. Unilateral monoarthritits was induced by an intraarticular injection of FCA (0.05 ml) into the tibio tarsial cavity of the right hindpaw of the rat under volatile anaesthetic (5% isofluorane). Fourteen days later, drugs were intraperitoneally given as a single administration. Pain reaction thresholds (vocalization or struggle) were measured using the paw pressure test before induction of monoarthritis, just before drug injections and 15 min, 30 min, 45 min, 1 h, 1 h 30, 2 h and 3 h after drug injections. Pressure was gradually applied to the injected hindpaw of the rat (tibio tarsial articulation) and pain reaction thresholds were determined as the pressure (g) required to elicit struggle or vocalization.
Results were expressed as pressure (g) which induces pain reaction (mean+/−SEM). The cut-off value corresponds to the maximum pressure that the apparatus allows (750 g). Data were analyzed by a two-way analysis of variance (ANOVA) to compare time-course scores. These analyses were followed by a Tukey test when the F-value was significant. The significance level was p<0.05.

The nature of data set [1]: Solubility of test articles in the dosing vehicle (Example 3). The note with it: at 10 mg/kg (2 mL/kg, NaCl 0.9%/DMSO 50/50).
For data set [2], the system named is ipsilateral (inflamed) hindpaw of the FCA-rat model of inflammatory pain. The data set is described as follows: Paw Pressure Test, FCA-rat model of inflammatory pain (Example 1), ipsilateral hindpaw. Particulars: single i.p. bolus doses ~7-70 mg/kg (estimated doses). It counts as in vivo. As to the method: Single bolus doses of PD-123,319 were administered by the i.p. route to rats with FCA-induced unilateral hindpaw inflammation, a rat model of inflammatory pain. Anti-hyperalgesic (pain-relieving) efficacy was assessed using the Paw Pressure Test, a test which involves the application of noxious pressure to the inflamed hindpaw.
Following i.pl. […] The ability of single bolus doses of PD-123,319 (˜7-70 mg/kg) or vehicle to alleviate mechanical hyperalgesia in the ipsilateral (inflamed) hindpaw was assessed using the Paw Pressure Test (PPT).

The subject of data set [3] is ipsilateral hindpaw volume of FCA-rats. The data set is described as follows: Paw volume measurement in FCA-rats (water displacement). The note with it: 3 h post-dosing, single bolus doses tested. Type of data set: in vivo, rat. As for the experimental part: Paw volume was assessed using displacement of water by the hindpaw to indicate the paw volume. These measurements were undertaken for both the ipsilateral and contralateral hindpaws prior to and 5 days after i.pl. FCA administration and prior to and 3 h post-dosing.

For the next data set, the system named is FCA-rats. As to the kind of experiment: Behavioural observations in FCA-rats. It counts as in vivo, rat. The note with it: single bolus: EMA500 1-100 mg/kg i.p., EMA600 1-30 mg/kg i.p., morphine 0.5 mg/kg. An excerpt:
The animals were monitored for visible and audible signs of distress throughout the testing period. The visible signs of distress included behavioural changes such as complete immobility, movement with abnormal gait, agitation, aggression, wet dog shakes, excessive grooming, restlessness with constant movement, repeated sudden movements or staring.

The subject of data set [4] is ipsilateral (inflamed) hindpaw of FCA-rats. The data set is described as follows: Paw Pressure Test (PPT) in FCA-rats (Example 2), anti-hyperalgesia in ipsilateral hindpaw.
The test system of data set [5] is contralateral (non-inflamed) hindpaw of FCA-rats. The data set is described as follows: Paw Pressure Test (PPT) in FCA-rats (Example 2), antinociception in contralateral hindpaw. The note with it: 0.5 mg/kg s.c.; did not reach statistical significance (p>0.05).

Structures are written as SMILES. Entries after “also recorded” stand apart in the source; their conditions may differ.

For the molecule `COc1ccc2c(c1OCc1ccccc1)CC(C(=O)O)N(C(=O)C(c1ccccc1)c1ccccc1)C2` (single isomer, unassigned; (+)) [EMA400, (+)-2-(Diphenylacetyl)-1,2,3,4 tetrahydro-6-methoxy-5-(phenylmethoxy)-3-isoquinoline carboxylic acid], the antihyperalgesic effect result is on record as “+20%” in the data set with monoarthritic rats (1 mg/kg i.p., 15 minutes after the injection); “+40%” in the data set on monoarthritic rats (10 mg/kg i.p., 15 minutes after the injection); “significant antihyperalgesic effect” with monoarthritic rats (10 mg/kg i.p., 30 minutes after the injection). In addition, the “antihyperalgesic effect in model of monoarthritis (overall)” value in the data set on monoarthritic rats was “induce antihyperalgesic effects”. Moreover, the solubility issues entry in data set [1] was “Solubility issues were observed”.

Regarding `COc1ccc(Cn2cnc3c2CC(C(=O)O)N(C(=O)C(c2ccccc2)c2ccccc2)C3)cc1C` (stereo not drawn) [EMA300, 1-(3-methyl-4-methoxyphenyl)-methyl-5-diphenylacetyl-4,5,6,7-tetrahydro-1H-imidazo[4,5-c]pyridine-6-carboxylic acid], the antihyperalgesic effect entry is listed as “+6%” in the data set on monoarthritic rats (0.1 mg/kg i.p., 15 and 30 minutes after drug injection); “+22%” in the data set with monoarthritic rats (1 mg/kg i.p., 15 and 30 minutes after drug injection); “+56%” in the data set on monoarthritic rats (10 mg/kg i.p., 15 and 30 minutes after drug injection). The “antihyperalgesic effect in model of monoarthritis (overall)” value with monoarthritic rats was “dose-dependent antihyperalgesic effect; also recorded: induce antihyperalgesic effects”.

Regarding `Cc1cc(Cn2cnc3c2CC(C(=O)O)N(C(=O)C(c2ccccc2)c2ccccc2)C3)ccc1N(C)C` (stereo not drawn) [PD-123,319, 1-(4-Dimethylamino-3-methylphenyl)methyl-5-diphenylacetyl-4,5,6,7-tetrahydro-1H-imidazo[4,5-c]-pyridine-6-carboxylic acid], the “relief of mechanical hyperalgesia in the ipsilateral (inflamed) hindpaw” value in data set [2] was “dose-dependent relief of mechanical hyperalgesia”.

Consider `CN1CC[C@]23c4c5ccc(O)c4O[C@H]2[C@@H](O)C=C[C@H]3[C@H]1C5` [morphine], for which, in data set [3], the “effect on ipsilateral hindpaw volume” value is “did not alter ipsilateral hindpaw volumes; also recorded: unaffected”. The adverse behavioural effects result in the data set on FCA-rats is given as “did not produce adverse behavioural effects”. The “antinociceptive effect (vocalization threshold)” value in the data set on monoarthritic rats (morphine 5 mg/kg i.p., compared to pre-induction values) was “significant increase in the vocalization threshold”. Moreover, the “duration of action (anti-hyperalgesic response)” value in data set [4] (0.5 mg/kg s.c. single bolus) is 2 to 3 h. Also, the “time of peak anti-hyperalgesic response” value in data set [4] (0.5 mg/kg s.c. single bolus, post-dosing) worked out at 0.5 h. In data set [4] (0.5 mg/kg s.c., 0.5 h post-dosing), the “reversal of FCA-induced mechanical hyperalgesia” value was “fully reversed FCA-induced mechanical hyperalgesia”. Further, the “mean (±SEM) PPT at the time of peak effect, ipsilateral hindpaw” value in data set [4] (0.5 mg/kg s.c., 0.5 h post-dosing, pre-dosing 63.7 (±2.5) g) is reported as 115.0 (±10.6) g. Moreover, the “antinociceptive effect in the contralateral hindpaw” value in data set [5] was “small antinociceptive effect”.

The values above are taken from patent US9227968B2, “Method of treatment or prophylaxis of inflammatory pain” (Novartis AG, priority 2006, dated 2016).
